US7807719B2, “Compounds useful for modulating abnormal cell proliferation” (priority 2004, dated 2010)

Legend:
Assay type in all cases: cell-based
Z119 cells = test: Killing of Philadelphia positive Z119 acute lymphoblastic leukemia cells in culture (colony assay); details: Z119 Philadelphia positive ALL cells, methylcellulose colony count at 7-9 days; read-out: ALL (Z 119) IC50
Procedure: Z119 cells were plated in 1 ml volumes at a density of 5×10^4 cells/ml, in the absence of exogenous growth factors, into 35 mm petri dishes (Nunc, Gibco) containing IMDM (OCI, Toronto) plus 20% FCS (Cansera Rexdale, ON.) in 0.9% (vol/vol) methylcellulose (Fluka, Switzerland) with the indicated concentration of for various test compounds described above. Cultures were set at 37° C., 5% CO2 in a humidified atmosphere. Colonies consisting of more than 20 cells were counted at 7-9 days using an inverted microscope.

[1] = tested on: normal bone marrow cells (BFU-E); test: Effect upon normal bone marrow differentiation in culture (CFU-GEMM assay, BFU-E colonies); details: Bone marrow cell, 336 h, BFU-E colonies evaluated at 14 days, read-out: NBM (BFU-E) IC50
Procedure: The CFU-GEMM assay was performed according to Fauser and Messner (1978, Blood, 52(6) 143-8) and Messner and Fausser (1980, Blut, 41(5) 327-33) with some variations. In brief, heparinized bone marrow cells were layered over Percoll (1.077 gm/ml) (Pharmacia Fine Chemical, Piscataway N.J.) and centrifuged at 400 g at 4° C. for 10 minutes to remove neutrophils and RBCs. The fractionated BM cells at 2×10^5 cells/ml were cultured in IMDM (OCI, Toronto) containing 0.9% (vol/vol) methylcellulose supplemented with 30% FCS (Cansera Rexdale, ON.) or normal human plasma, a cocktail of cytokines containing G-CSF (10 ng/ml, Amgen), IL-3 (40 U/ml, Immunex), MGF (50 ng/ml, Immunex), Erythropoietin (2 u/ml, Epprex) or TPO (10 ng/ml, Amgen), 5×10^−5 M β-2-mercaptoethanol and the specified concentration of CR4. The culture mixture was plated in 1 ml volumes into 35 mm petri dishes and incubated at 37° C., 5% CO2 in a humidified atmosphere. All cultures were evaluated at 14 days for the number of BFU-E colonies (defined as aggregates of more than 500 hemoglobinized cells or, 3 or more erythroid subcolonies), OFU-GM colonies (defined as granulocyte or monocyte-macrophage cells or both), CFU-Meg colonies (comprising 4 or more megakaryocytes) and CFU-GEMM colonies (a mixed population comprising of all elements).

C1 cells = test: Killing of Philadelphia negative C1 acute lymphoblastic leukemia cells in culture (colony assay); details: C1 Philadelphia negative ALL cells, methylcellulose colony count in 5-7 days
Procedure: C1 (at 2×10^4 cells/ml) were plated in 1 ml volumes, in the absence of exogenous growth factors, into 35 mm Petri dishes (Nunc, Gibco) containing alpha MEM (Gibco) plus 10% FCS (Cansera Rexdale, Ont.) in 0.9% (vol/vol) methylcellulose (Fluka, Switzerland). Cultures were set up at 37° C. with 5% CO2 in a humidified atmosphere. Colonies consisting of more than 20 cells were counted in 5-7 days using an inverted microscope. For further information, see Leukemia, Vol. 6, No. 1, 1992, pg. 8-17 and Nature, Vol. 379, 15 Feb. 1996.

OCI-AML-3 cells = test: Killing of AML-3 acute myeloid leukemia cells in culture (colony assay); details: Homo sapiens, methylcellulose colony count at 5-6 days
Procedure: OCI-AML-3 cells were plated in 35 mm petri dishes (Nunc, Gibco) in 1 ml volumes at a density of 3.3×10^3 cells/ml, in the absence of exogenous growth factors, containing alpha MEM plus 30% FCS (Cansera, Rexdale Ont.), and 0.9% (vol/vol) methylcellulose (Fluka, Switzerland) and the indicated concentrations of for various test compounds described above. Cell cultures were incubated in a humidified atmosphere at 37° C. with 5% CO2. Colonies containing more than 20 cells were scored, using an inverted microscope, at 5-6 days.

SMILES: N#C/C(=C\C(Cl)=C\c1ccccc1)C(=O)NCc1ccc(O)c(O)c1 [CRC-47, 4-chloro-2-cyano-5-phenyl-penta-2E,4Z-dienoic acid 3,4-dihydroxybenzylamide]
- IC50 (Z119 cells): < 0.125 µM
- IC50 [1]: < 5 µM

SMILES: N#C/C(=C\C=C\c1ccco1)C(=O)NCc1ccc(O)c(O)c1 [CRH-48, 2-cyano-5-furan-2-yl-penta-2E,4E-dienoic acid 3,4-dihydroxybenzylamide]
- IC50 (Z119 cells): 0.25 to 0.5 µM
- IC50 (C1 cells): ≥ 0.25 µM
- IC50 (OCI-AML-3 cells): 0.23 µM
- IC50 [1]: ≤ 10 µM

SMILES: N#C/C(=C\C=C\c1cccnc1)C(=O)NCc1ccc(O)c(O)c1 [CRH-58, 2-cyano-5-pyridin-3-yl-penta-2E,4E-dienoic acid 3,4-dihydroxybenzylamide]
- IC50 (Z119 cells): 0.26 µM
- IC50 (C1 cells): > 0.5 µM
- IC50 (OCI-AML-3 cells): > 0.5 µM
- IC50 [1]: 7.5 to 9.8 µM

SMILES: N#C/C(=C\C=C\c1cccnc1)C(=O)NCc1ccccc1 [CRH-59, 2-cyano-5-pyridin-3-yl-penta-2E,4E-dienoic acid benzylamide]
- IC50 (Z119 cells): > 1 µM
- IC50 [1]: > 10 µM

SMILES: N#C/C(=C\C=C\c1cccs1)C(=O)NCc1ccc(O)c(O)c1 [CRH-60, 2-cyano-5-thiophen-2-yl-penta-2E,4E-dienoic acid 3,4-dihydroxybenzylamide]
- IC50 (Z119 cells): < 0.5 µM
- IC50 [1]: 7.1 µM

SMILES: N#C/C(=C\C=C\c1cc(O)ccc1O)C(=O)NCc1ccccc1 [CRO-70, 2-Cyano-5-(2,5-dihydroxyphenyl)penta-2E,4E-dienoic acid benzylamide]
- IC50 (Z119 cells): 0.26 µM
- IC50 (C1 cells): > 0.5 µM
- IC50 (OCI-AML-3 cells): > 0.5 µM
- IC50 [1]: 6.9 µM

SMILES: N#C/C(=C\c1ccc(/C=C/c2ccccc2)cc1)C(=O)NCc1ccncc1 [CRS-75, 2-cyano-N-pyridin-4-ylmethyl-3-(4-trans-styrylphenyl)-E-acrylamide]
- IC50 (Z119 cells): > 1 µM
- IC50 (C1 cells): ≥ 0.5 µM
- IC50 (OCI-AML-3 cells): ≥ 0.5 µM
- IC50 [1]: > 10 µM

SMILES: N#C/C(=C\c1ccc(/C=C/c2ccncc2)cc1)C(=O)NCc1ccc(O)c(O)c1 [CRS-76, 2-cyano-N-(3,4-dihydroxybenzyl)-3-[4-(2-pyridin-4-yl-trans-vinyl)-phenyl]-E-acrylamide]
- IC50 (Z119 cells): > 1 µM
- IC50 [1]: > 10 µM

SMILES: N#C/C(=C\c1ccc(/C=C/c2ccncc2)cc1)C(=O)NCc1ccncc1 [CRS-77, 2-cyano-N-pyridin-4-ylmethyl-3-[4-(2-pyridin-4-yl-trans-vinyl)phenyl]-E-acrylamide]
- IC50 (Z119 cells): > 1 µM
- IC50 [1]: > 10 µM

SMILES: COc1cc(/C=C/C=C/C=C(\C#N)C(=O)NCc2ccc(O)c(O)c2)ccc1O [CRT-67, 2-cyano-7-(4-hydroxy-3-methoxyphenyl)hepta-2E,4E,6E-trienoic acid 3,4-dihydroxybenzylamide]
- IC50 (Z119 cells): ≤ 0.5 µM
- IC50 (C1 cells): > 0.5 µM
- IC50 (OCI-AML-3 cells): > 0.5 µM
- IC50 [1]: 10.2 µM

SMILES: N#C\C(=C/C=C/C=C/c1ccc(O)c(O)c1)C(=O)NCc1ccccc1 [CRT-88, 2-Cyano-7-(3,4-dihydroxyphenyl)hepta-2E,4E,6E-trienoic acid benzyl-amide]
- IC50 (Z119 cells): < 0.5 µM
- IC50 [1]: 3.1 to 5.4 µM
